The target in the assay is Vps35 (retromer core complex Vps35–Vps29–Vps26) (Homo sapiens, UniProt Q96QK1+Q9UBQ0). As to the kind of experiment: microscale thermophoresis. The class given is binding. On the technique in general: Microscale thermophoresis detects binding through changes in fluorescence in a small temperature gradient.

Where a name gives a salt, the structure may show the parent alone.

The term Kd denotes the free concentration of one partner at which half of the binding sites on the other are occupied at equilibrium, for simple one-to-one binding. A higher Kd goes with lower affinity.

Molecule `N=C(N)SCc1ccc(CSC(=N)N)s1` [compound 1, thiophene-2,5-diylbis(methylene) dicarbamimidothioate dihydrochloride] came in with a Kd of roughly 5 µM.
